We go through one compound from patent publication US20220241422A1, “DRUG DELIVERY COMPOSITION AND PHARMACEUTICAL COMPOSITION” (Nihon University, priority 2019, published 2022).

SMILES strings stand for the structures.

Experiment [1] concerns ALS model mice (G93A SOD1 transgenic mouse). Nature of the experiment: Oral administration test for NAC in ALS model mice (Rota-Rod motor function, survival time). Type of experiment: in vivo. The settings on record: oral administration from 15 weeks of age, vs water-administered group. An excerpt:
NAC is considered to be effective for treating ALS as a result of its effect of removing active oxygen. Thus, NAC was used as a test drug for ALS treatment.
As a test animal, G93A SOD1 transgenic mouse (G93A), which is one of the ALS model animals, was used. […] The research group of the present inventors has already reported the characteristics of the change (progression) in the motor dysfunction of this G93A (Miyagisi H et al., J Pharmacol Sci., 118, 225-236 (2012)).
NAC was orally administered to G93A from 15 weeks of age (105 days of age) after the onset of ALS, and the motor function and the survival time were examined. Water was orally administered as a negative control.
The motor function was evaluated using Rota-Rod (Muromachi Kikai Co., Ltd.). in order to acclimatize mice to Rota-Rod, mice were trained from 3 weeks (12 weeks of age) before the day of measurement initiation. The rotation speed of Rota-Rod was set to 24 times/minute. The measurement was performed twice a week, and the time (seconds) taken until the mouse fell from Rota-Rod was measured. The cut-off value was set to 300 seconds, while in the case of falling, the average value of three times was used as the score for that day, and measurements were taken up to 133 days after birth.
For orientation: The rotarod test checks motor coordination on a turning rod.

The subject of a further experiment is ALS model mice (G93A). Nature of the experiment: Nasal administration test for NAC/PEG-PCL-Tat in ALS model mice (Rota-Rod motor function). Type of experiment: in vivo, mouse. The settings on record: nasal administration 105 to 120 days of age, 5 days a week; compared with untreated.

Experimental for ALS model mice (G93A): A drug solution was prepared by dissolving NAC in HEPES buffer solution (pH 7.4) at a concentration of 50 mg/mL.
The drug solution was administered to G93A for a period from 105 days of age (15 weeks of age) after birth to 120 days of age, at a frequency of 5 days a week. […] Under inhalation anesthesia using a mask in which the vicinity of the nostrils could be opened or closed, 2 μL each of the drug solution was alternately administered to the right and left nasal cavities every 30 seconds using a micropipette (see FIG. 3). Only male mice were used for the test, and in principle, administration was performed in the morning (10:00 to 12:00).
The motor function was evaluated using Rota-Rod (Muromachi Kikai Co., Ltd.). In order to acclimatize mice to Rota-Rod, mice were trained from 3 weeks (12 weeks of age) before the day of measurement initiation. The rotation speed of Rota-Rod was set to 24 times/minute. The measurement was performed twice a week, and the time (seconds) taken until the mouse fell from Rota-Rod was measured. The cut-off value was set to 300 seconds, while in the case of falling, the average value of three times was used as the score for that day, and measurements were taken up to 122 days after birth.

As for `CC(=O)N[C@@H](CS)C(=O)O` [NAC, N-Acetyl-Cysteine], in experiment [1], the “motor function (Rota-Rod)” value is “no difference” and the survival time result is given as “no difference”. Moreover, the “suppression of hypanakinesia (Rota-Rod, FIG. 4A)” value in the experiment with ALS model mice (G93A) is “hypanakinesia was suppressed”.
